Patent US20220039384A1, “SELECTIVE WEED CONTROL WITH HALAUXIFEN OR 4-AMINO-3-CHLORO-5-FLUORO-6-(4-CHLORO-2-FLUORO-3-METHOXYPHENYL) PYRIDINE-2-CARBOXYLIC ACID OR DERIVATIVES THEREOF IN VINEYARDS OR PERENNIAL CROPS” (Corteva Agriscience LLC, priority 2013, published 2022)

Legend:
Type in all cases: in vivo
[1] = tested on: AMSIN (Amsinckia intermedia, coast fiddleneck); assay: Field trial, pre-emergence application (February), California vineyards: visual weed control
Source text: (§1) As used herein, selective pre- and post-emergence control of undesirable vegetation means preventing, reducing, killing, or otherwise adversely modifying the development of the undesirable vegetation in the presence of crop plants with limited adverse effect on the crop plants. For example, a broadleaf weed control of 80% (rated visually) with crop injury of less than or equal to 20% (rated visually) would constitute selective control. In some embodiments the adverse effect on crop plants is limited to less than 10% visually rated crop injury. Visual crop injury is a composite rating accounting for all phytotoxic effects including chlorosis, necrosis, growth inhibition, epinasty, delays in maturity and seed or fruit deformity. Visual weed control is a composite rating accounting for reductions in pest plant biomass and/or stand reduction.
(§2) Small plot research experiments were conducted in Fresno, Calif., USA to evaluate the pre-emergence and post-emergence herbicidal weed control activity and the vines crop tolerance to pre-emergence and post-emergence application of Compound I and Compound II to the weeds. Application water volume of 100 to 187 liters per hectare (L/ha) was used for all experiments. All treatments were applied with a standard small plot carbon dioxide (CO2) backpack sprayer. All treatments were tank-mixed with Crop Oil Concentrate (COC), a well known adjuvant, at 2.34 L/ha. Experimental emulsifiable concentrate (EC) formulations were used for Compounds I and II. The dimethylammonium (DMA) salt of glyphosate was used in all trials. Pindar® GT is a commercial formulation containing a pre-mix of penoxsulam+oxyfluorfen (10+476 grams of active ingredient per liter (g ai/L), respectively). Vine crop stage was dormant (no leaves on the vines during the winter) or early spring growth at the time of Compound I or Compound II application. Generally, weeds were not emerged for the pre-emergence treatments or were at the two to six-leaf stage at the time of the post-emergence herbicide application.
(§3) Tables 1, 2 and 6 provide weed control results from pre-emergence applications of Compounds I and/or II prior to weed emergence; Tables 4, 7 and 8 provide weed control results from post-emergence applications of Compounds I and/or II applied to actively growing weeds; Tables 3 and 5 provide vine response data from pre-emergence and post-emergence applications of Compound I respectively.

[2] = tested on: CAPBP (Capsella bursa-pastoris, Shepherd's purse); assay: as above
Source text: as §1, §2, §3

[3] = tested on: CLNCM (Calandrinia ciliata, rock purslane); assay: as above
Source text: as §1, §2, §3

[4] = tested on: EROCI (Erodium cicutarium, redstem filaree); assay: Field trial, post-emergence directed spring application (March), California vineyards: visual weed control
Source text: as §1, §2, §3

[5] = tested on: MALPA (Malva parviflora, smallflower malva); assay: as above
Source text: as §1, §2, §3

[6] = tested on: MEDPO (Medicago polymorpha, California burclover); assay: as above
Source text: as §1, §2, §3

[7] = tested on: STEME (Stellaria media, common chickweed); assay: as above
Source text: as §1, §2, §3

[8] = tested on: AMARE (Amaranthus retroflexus, redroot pigweed); assay: Field trial, post-emergence directed dormant application (December), California vineyards: visual weed control
Source text: as §1, §2, §3

[9] = tested on: AMSIN (Amsinckia intermedia, coast fiddleneck); assay: as above
Source text: as §1, §2, §3

[10] = tested on: CAPBP (Capsella bursa-pastoris, Shepherd's purse); assay: as above
Source text: as §1, §2, §3

[11] = tested on: CHEAL (Chenopodium album, common lambsquarters); assay: as above
Source text: as §1, §2, §3

[12] = tested on: IPOSS (Ipomoea spp, morningglory); assay: as above
Source text: as §1, §2, §3

SMILES: O=C(O)CNCP(=O)(O)O [Glyphosate, glyphosate, reference compound]
- % Visual Control 48 DAA AMSIN ([1]; 1680 g ae/ha): 0%
- % Visual Control 48 DAA CAPBP ([2]; 1680 g ae/ha): 0%
- % Visual Control 48 DAA CLNCM ([3]; 1680 g ae/ha): 0%
- % Visual Control 59 DAA EROCI ([4]; 1680 g ae/ha): 91%
- % Visual Control 59 DAA MALPA ([5]; 1680 g ae/ha): 86.7%
- % Visual Control 59 DAA MEDPO ([6]; 1680 g ae/ha): 100%
- % Visual Control 59 DAA STEME ([7]; 1680 g ae/ha): 93.3%
- % Visual Control 57 DAA AMARE ([8]; 1680 g ae/ha): 0%
- % Visual Control 57 DAA AMSIN ([9]; 1680 g ae/ha): 100%
- % Visual Control 57 DAA CAPBP ([10]; 1680 g ae/ha): 99.3%
- % Visual Control 57 DAA CHEAL ([11]; 1680 g ae/ha): 95%
- % Visual Control 57 DAA IPOSS ([12]; 1680 g ae/ha): 51.7%

SMILES: COc1c(Cl)ccc(-c2nc(C(=O)OCc3ccccc3)c(Cl)c(N)c2F)c1F [II-Bn, benzyl 4-amino-3-chloro-5-fluoro-6-(4-chloro-2-fluoro-3-methoxyphenyl)pyridine-2-carboxylate]
- % Visual Control 48 DAA AMSIN ([1]; 5 g ai/ha): 0%
- % Visual Control 48 DAA AMSIN ([1]; 10 g ai/ha): 33.3%
- % Visual Control 48 DAA AMSIN ([1]; 20 g ai/ha): 40%
- % Visual Control 48 DAA AMSIN ([1]; 40 g ai/ha): 87.3%
- % Visual Control 48 DAA AMSIN ([1]; 50 g ai/ha): 84.3%
- % Visual Control 48 DAA CAPBP ([2]; 5 g ai/ha): 0%
- % Visual Control 48 DAA CAPBP ([2]; 10 g ai/ha): 60%
- % Visual Control 48 DAA CAPBP ([2]; 20 g ai/ha): 76.7%
- % Visual Control 48 DAA CAPBP ([2]; 40 g ai/ha): 100%
- % Visual Control 48 DAA CAPBP ([2]; 50 g ai/ha): 96.7%
- % Visual Control 48 DAA CLNCM ([3]; 5 g ai/ha): 0%
- % Visual Control 48 DAA CLNCM ([3]; 10 g ai/ha): 40%
- % Visual Control 48 DAA CLNCM ([3]; 20 g ai/ha): 56.7%
- % Visual Control 48 DAA CLNCM ([3]; 40 g ai/ha): 90%
- % Visual Control 48 DAA CLNCM ([3]; 50 g ai/ha): 96.7%
- % Visual Control 59 DAA EROCI ([4]; 5 g ai/ha): 81.7%
- % Visual Control 59 DAA EROCI ([4]; 10 g ai/ha): 85%
- % Visual Control 59 DAA EROCI ([4]; 20 g ai/ha): 85%
- % Visual Control 59 DAA EROCI ([4]; 40 g ai/ha): 94.3%
- % Visual Control 59 DAA EROCI ([4]; 50 g ai/ha): 96%
- % Visual Control 59 DAA MALPA ([5]; 5 g ai/ha): 61.9%
- % Visual Control 59 DAA MALPA ([5]; 10 g ai/ha): 83.4%
- % Visual Control 59 DAA MALPA ([5]; 20 g ai/ha): 90%
- % Visual Control 59 DAA MALPA ([5]; 40 g ai/ha): 95%
- % Visual Control 59 DAA MALPA ([5]; 50 g ai/ha): 96.7%
- % Visual Control 59 DAA MEDPO ([6]; 5 g ai/ha): 100%
- % Visual Control 59 DAA MEDPO ([6]; 10 g ai/ha): 100%
- % Visual Control 59 DAA MEDPO ([6]; 20 g ai/ha): 100%
- % Visual Control 59 DAA MEDPO ([6]; 40 g ai/ha): 100%
- % Visual Control 59 DAA MEDPO ([6]; 50 g ai/ha): 100%
- % Visual Control 59 DAA STEME ([7]; 5 g ai/ha): 70%
- % Visual Control 59 DAA STEME ([7]; 10 g ai/ha): 75%
- % Visual Control 59 DAA STEME ([7]; 20 g ai/ha): 84.3%
- % Visual Control 59 DAA STEME ([7]; 40 g ai/ha): 94.3%
- % Visual Control 59 DAA STEME ([7]; 50 g ai/ha): 97.3%
- % Visual Control 57 DAA AMARE ([8]; 5 g ai/ha): 100%
- % Visual Control 57 DAA AMARE ([8]; 10 g ai/ha): 95%
- % Visual Control 57 DAA AMARE ([8]; 20 g ai/ha): 100%
- % Visual Control 57 DAA AMARE ([8]; 40 g ai/ha): 100%
- % Visual Control 57 DAA AMARE ([8]; 50 g ai/ha): 100%
- % Visual Control 57 DAA AMSIN ([9]; 5 g ai/ha): 56.7%
- % Visual Control 57 DAA AMSIN ([9]; 10 g ai/ha): 96.7%
- % Visual Control 57 DAA AMSIN ([9]; 20 g ai/ha): 86.7%
- % Visual Control 57 DAA AMSIN ([9]; 40 g ai/ha): 100%
- % Visual Control 57 DAA AMSIN ([9]; 50 g ai/ha): 100%
- % Visual Control 57 DAA CAPBP ([10]; 5 g ai/ha): 100%
- % Visual Control 57 DAA CAPBP ([10]; 10 g ai/ha): 100%
- % Visual Control 57 DAA CAPBP ([10]; 20 g ai/ha): 100%
- % Visual Control 57 DAA CAPBP ([10]; 40 g ai/ha): 100%
- % Visual Control 57 DAA CAPBP ([10]; 50 g ai/ha): 100%
- % Visual Control 57 DAA CHEAL ([11]; 5 g ai/ha): 96.7%
- % Visual Control 57 DAA CHEAL ([11]; 10 g ai/ha): 100%
- % Visual Control 57 DAA CHEAL ([11]; 20 g ai/ha): 100%
- % Visual Control 57 DAA CHEAL ([11]; 40 g ai/ha): 100%
- % Visual Control 57 DAA CHEAL ([11]; 50 g ai/ha): 100%
- % Visual Control 57 DAA IPOSS ([12]; 5 g ai/ha): 55%
- % Visual Control 57 DAA IPOSS ([12]; 10 g ai/ha): 46.7%
- % Visual Control 57 DAA IPOSS ([12]; 20 g ai/ha): 66.7%
- % Visual Control 57 DAA IPOSS ([12]; 40 g ai/ha): 66.7%
- % Visual Control 57 DAA IPOSS ([12]; 50 g ai/ha): 97.3%
